In publication PMC9028786, “The Ribosome Is the Ultimate Receptor for Trypsin Modulating Oostatic Factor (TMOF)” (Biomolecules, 2022):

System: E. coli ribosome
Assay: Binding of AeaTMOF-FITC to purified E. coli ribosomes
Parameters: species or system Escherichia coli
Experimental: The purification of E. coli ribosomes is a modification of earlier published methods. Briefly, E. coli (BL21) cells were grown in LB medium for 24 h to OD600 of 1.1, and the cells were centrifuged at 5000 rpm at 6 °C for 5 min. The supernatant was discarded and the pellet was washed with 40 mM HEPES-KOH pH7.4, 100 mM NaCl, and 2 mM Mg(OAc)2 buffer. The suspension was centrifuged at 6000 rpm for 5 min, the supernatant discarded, and the pellet was frozen at −80 °C and stored overnight. The frozen pellet was taken up in 10 mL of sonication buffer of 20 mM HEPES-KOH pH 7.5, 100 NH4OAc, 6 mM βME, 0.5 mM Na-EDTA, and 0.5% Tween 20 containing 100 units of RNase inhibitor, and the solution was sonicated at 40% power for 10 s, 50% power for 10 s, and 60% power for 20 s. During the sonication, the tube was immersed in an ice bath. The lysed cell solution (25 mL) in sonication buffer was centrifuged at 30,000 g in a Beckman ultracentrifuge using a 70Ti centrifuge rotor for 30 min at 4 °C. After centrifugation, the supernatant was collected, and the pellet discarded. […] The amount of the protein in the ribosome preparation and the ribosomal RNA was determined (2.28 mg/mL protein and 3.932 mg/mL ribosomal RNA). […]
Purified E. coli ribosomes (1 μL, 9.4 μg) in tight association buffer (20 mM HEPES-KOH pH 7.6, 6 mM Mg(OAc)2, 30 mM NH4OAc, and 6 mM βME) were incubated in Eppendorf tubes containing 100 μL of tight association buffer and 5 μL of AeaTMOF-FITC (0–0.2 μM) (Specific activity 8333 Fluorescence Units/pmol) for 60 min at 30 °C with gentle shaking. […] The washing by centrifugation with 5% TCA was repeated 3 times, and after the final centrifugation, the pellets were dissolved in 100 μL of PBS containing 0.4N NaOH, and the fluorescence of the dissolved pellets was read in a GloMax multidetector system using a blue filter (Excitation at 490 nm and Emission at 510–570 nm). All data were corrected for nonspecific fluorescence when incubations were run without AeaTMOF-FITC or with AeaTMOF-FITC and without ribosomes. […]

H-YDPAPPPPPPK(FITC)K-OH [AeaTMOF-FITC, H-[…](FITC)K-OH, FITC-labelled AeaTMOF]
Kassoc, affinity constant (calculated from specific binding KD): 4.3e+07 M⁻¹ | Kd (purified E. coli (BL21) ribosomes 9.4 μg, AeaTMOF-FITC 0–0.2 μM, tight association buffer pH 7.6, 60 min at 30 °C, TCA precipitation, fluorescence, nonspecific binding subtracted, nonlinear regression, ± SEM, n = 6): 23 ± 3.4 nM | Bmax, ribosome binding (purified E. coli ribosomes, AeaTMOF-FITC 0–0.2 μM, pH 7.6, 60 min at 30 °C, fluorescence, nonlinear regression, ± SEM, n = 6): 0.553 ± 0.023 pmol/μg ribosome
